Source: article PMC8133782, “Identification of a series of hair-cell MET channel blockers that protect against aminoglycoside-induced ototoxicity” (JCI Insight, 2021)
One block for each compound: values may come before it.

Key:
Format in all cases: cell-based
[1] = biological target: T1, mechano-electrical transducer (MET) channel (pore subunit TMC1) (Mus musculus, UniProt Q8R4P5); experiment: whole-cell patch clamp of MET currents in OHCs, fractional block at […] (approximately […])
T1 construct: native MET channel in early postnatal CD-1 mouse outer hair cells
T1 sequence (Q8R4P5 1-757): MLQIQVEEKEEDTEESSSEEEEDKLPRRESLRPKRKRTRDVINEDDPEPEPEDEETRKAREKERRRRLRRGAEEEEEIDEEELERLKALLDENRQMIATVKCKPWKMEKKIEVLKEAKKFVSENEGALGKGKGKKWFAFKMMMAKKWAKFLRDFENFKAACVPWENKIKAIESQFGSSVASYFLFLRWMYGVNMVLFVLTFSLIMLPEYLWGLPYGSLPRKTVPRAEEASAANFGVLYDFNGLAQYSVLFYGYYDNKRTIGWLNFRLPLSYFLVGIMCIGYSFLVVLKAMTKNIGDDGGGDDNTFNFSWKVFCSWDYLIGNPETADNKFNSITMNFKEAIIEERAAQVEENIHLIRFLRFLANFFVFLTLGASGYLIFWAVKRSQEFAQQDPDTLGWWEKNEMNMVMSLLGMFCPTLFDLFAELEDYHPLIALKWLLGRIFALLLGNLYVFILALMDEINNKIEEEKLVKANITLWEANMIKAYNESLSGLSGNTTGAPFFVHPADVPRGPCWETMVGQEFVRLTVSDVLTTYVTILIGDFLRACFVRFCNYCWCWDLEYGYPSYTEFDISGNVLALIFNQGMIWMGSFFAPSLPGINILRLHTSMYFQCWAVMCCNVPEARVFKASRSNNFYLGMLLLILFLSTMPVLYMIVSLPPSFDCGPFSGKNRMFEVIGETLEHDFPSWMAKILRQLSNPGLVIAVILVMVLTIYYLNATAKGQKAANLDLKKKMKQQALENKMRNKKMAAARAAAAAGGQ

[2] = biological target: T1, mechano-electrical transducer (MET) channel (pore subunit TMC1); experiment: whole-cell patch clamp of MET currents in OHCs, fractional block at […]
[3] = biological target: T1, mechano-electrical transducer (MET) channel (pore subunit TMC1); experiment: whole-cell patch clamp of MET currents in OHCs, fractional block at […], partially reversible

inhibition at 50 µM [1]: ~80%
Compound: C(=C\c1ccccc1)/CN1CCC(c2nc3ccccc3[nH]2)CC1 [UoS-3606]

inhibition at 50 µM [2]: ~70%
Compound: O=C(CN1CCC(c2nc3ccccc3[nH]2)CC1)Nc1cccc([N+](=O)[O-])c1 [UoS-3607]

inhibition at 50 µM [3]: ~70%
Compound: O=C(Nc1ccc(OC(F)(F)F)cc1)C1CCN(Cc2nc3ccccc3[nH]2)CC1 [UoS-8052]
